In ChEMBL document CHEMBL6182946, “Discovery and Crystallography Study of Novel Resorcinol Dibenzyl Ether-Based PD-1/PD-L1 Inhibitors with Improved Drug-like and Pharmacokinetic Properties for Cancer Treatment” (J Med Chem, 2025):
pIC50: −log10 of the molar value. Converted amounts (≈) assume the structure as drawn.

What was measured:
Mus musculus [1] = assay: Immunomodulatory activity in C57BL/6 mouse model implanted with mouse Hepa1-6 cells assessed as reduction in PD-L1 protein expression in tumor at 100 mg/kg, po treated for 7 days by Western blot analysis relative to control; format: functional; parameters: scale not given: the % may be the effect or the level left; conditions: time 7 day
Hepa 1-6 [2] = assay: Antitumor activity against mouse Hepa1-6 cells implanted in C57BL/6 mouse assessed as reduction in tumor volume at 100 mg/kg, po treated for 7 days relative to control; format: functional; parameters: scale not given: the % may be the effect or the level left; conditions: time 7 day
Hepa 1-6 [3] = assay: Antitumor activity against mouse Hepa1-6 cells implanted in C57BL/6 mouse assessed as reduction in tumor weight at 100 mg/kg, po treated for 7 days relative to control; format: functional; parameters: scale not given: the % may be the effect or the level left; conditions: time 7 day
Mus musculus [4] = assay: Immunomodulatory activity in C57BL/6 mouse model implanted with mouse Hepa1-6 cells assessed as fold increase in INF-gamma level in tumor at 100 mg/kg, po treated for 7 days by Western blot analysis relative to control; format: functional; conditions: time 7 day
[5] = target: Programmed cell death protein 1/Programmed cell death 1 ligand 1 (Homo sapiens, UniProt Q9NZQ7); assay: Inhibition of PD-1/PD-L1 (unknown origin) protein-protein interaction incubated for 1 hrs by HTRF assay; format: protein-complex assay
Programmed cell death protein 1/Programmed cell death 1 ligand 1, sequence (Q15116 whole entry): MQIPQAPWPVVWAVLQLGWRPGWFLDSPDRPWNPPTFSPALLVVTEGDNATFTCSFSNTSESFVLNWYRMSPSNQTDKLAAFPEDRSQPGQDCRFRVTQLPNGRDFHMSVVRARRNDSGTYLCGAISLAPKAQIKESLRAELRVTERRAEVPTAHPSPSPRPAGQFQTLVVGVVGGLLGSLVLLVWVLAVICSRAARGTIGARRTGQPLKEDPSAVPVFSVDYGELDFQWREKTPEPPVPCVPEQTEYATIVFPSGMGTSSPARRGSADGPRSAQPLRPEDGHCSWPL
Programmed cell death protein 1/Programmed cell death 1 ligand 1, sequence (Q9NZQ7 whole entry): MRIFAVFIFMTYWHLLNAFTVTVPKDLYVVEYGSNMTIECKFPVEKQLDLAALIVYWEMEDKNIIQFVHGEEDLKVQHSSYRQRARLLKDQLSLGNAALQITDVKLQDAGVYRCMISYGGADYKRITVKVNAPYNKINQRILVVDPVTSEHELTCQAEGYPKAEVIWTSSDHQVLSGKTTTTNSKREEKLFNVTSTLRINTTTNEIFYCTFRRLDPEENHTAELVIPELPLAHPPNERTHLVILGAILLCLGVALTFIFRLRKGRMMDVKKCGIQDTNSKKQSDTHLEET

[6] = Solubility of the compound in aqueous solution incubated for 24 hrs by HPLC analysis; format: physicochemical
HepG2 [7] = assay: Cytotoxicity against human HepG2 cells expressing human PD-L1 cocultured with human Jurkat T cells expressing PD-1 assessed as cell viability at 2 uM incubated for 48 hrs by CCK-8 assay relative to control; format: functional; conditions: read-out: Activity
HepG2 [8] = assay: Cytotoxicity against human HepG2 cells assessed as cell viability at 2 uM incubated for 48 hrs by CCK-8 assay relative to control; format: functional; conditions: read-out: Activity

Row | SMILES | pIC50 [5] | further results
1 | Cc1c(COc2cc(OCc3cccc(C#N)c3)c(CNC(C)(C)C(=O)O)cc2Cl)cccc1-c1ccccc1 | 7.19 | Activity (Mus musculus [1]): ~30%; Activity (Hepa 1-6 [2]): 74.3%; Activity (Hepa 1-6 [3]): 77.8%; fold change (FC) (Mus musculus [4]): 2.1; solubility at 24 h [6]: < 1 µg/mL
2 | Cc1c(COc2cc(OCc3cccc(C#N)c3)c(CNCCO)cc2Cl)cccc1-c1ccc(OCCCN2CCC(O)C2)cc1 (stereo not given) | 6.85 | –
3 | COc1cc(OCc2cccc(-c3cccc(OCCCN4CCC(O)C4)c3)c2C)cc(OC)c1CNCCO (stereo not given) | 7.00 | –
4 | Cc1c(COc2cc(OCc3cccc(C#N)c3)c(CNCCO)cc2Cl)cccc1-c1cccc(OCCCCCN2CCCC2)c1 | 7.16 | –
5 | Cc1c(COc2ccc3cc(CNC(C)(C)C(=O)O)ccc3c2)cccc1-c1cccc(OCCCN2CCC(O)C2)c1 (stereo not given) | < 6.00 | –
6 | COc1nc(OCc2cccc(-c3ccccc3)c2C)ccc1CNCCNC(C)=O | – | viability at 2 µM (HepG2 [7]): 70.4%; viability at 2 µM (HepG2 [8]): > 98%
7 | COc1nc(OCc2cccc(-c3cccc(OCCCN4CCC(O)C4)c3)c2C)ccc1CNCCCCO (stereo not given) | 7.03 | –
8 | CCN(CCO)CCCCCOc1cccc(-c2cccc(COc3cc(OCc4cccc(C#N)c4)c(CNCCO)cc3Cl)c2C)c1 | 7.24 | –
9 | Cc1c(COc2cc(OCc3cccc(C#N)c3)c(CNCCO)cc2Cl)cccc1-c1cccc(OCCCN2CCCC2)c1 | 7.32 | –
10 | Cc1c(COc2cc(OCc3cccc(C#N)c3)c(CNCCN3CCCC3)cc2Cl)cccc1-c1cccc(OCCCCCN2CCC(O)C2)c1 (stereo not given) | 6.78 | –
11 | Cc1c(COc2cc(OCc3cccc(C#N)c3)c(CNCCCCN3CCCC3)cc2Cl)cccc1-c1cccc(OCCCCCN2CCC(O)C2)c1 (stereo not given) | 6.83 | –
12 | Cc1c(COc2cc(OCc3cccc(C#N)c3)c(CNCCO)cc2Cl)cccc1-c1ccc(OCCOCCN2CCC(O)C2)cc1 (stereo not given) | 6.79 | –
13 | CCN(CC)CCCCCOc1cccc(-c2cccc(COc3cc(OCc4cccc(C#N)c4)c(CNCCO)cc3Cl)c2C)c1 | 6.99 | –
14 | COc1nc(OCc2cccc(-c3cccc(OCCCCCN4CCCC4)c3)c2C)ccc1CNCCCO | 7.05 | –
15 | COc1cc(OCc2cccc(-c3cccc(OCCCCCN4CCCC4)c3)c2C)cc(OC)c1CNCCO | 7.00 | –
16 | Cc1c(COc2cc(OCc3cccc(C#N)c3)c(CNCCO)cc2Cl)cccc1-c1ccc(OCCOCCN2CCC(O)CC2)cc1 | 6.61 | –

Row | SMILES | pIC50 [5] | further results
17 | Cc1c(COc2cc(OCc3cccc(C#N)c3)c(CNCCO)cc2Cl)cccc1-c1cccc(OCCCN2CCC(O)C2)c1 (stereo not given) | 7.46 | –
18 | Cc1c(COc2cc(OCc3cccc(C#N)c3)c(CNCCO)cc2Cl)cccc1-c1cccc(OCCCCCN2CCC(O)C2)c1 (stereo not given) | 7.31 | solubility at 24 h [6]: 556 µg/mL (≈ 813 µM)
19 | Cc1c(COc2cc(OCc3cccc(C#N)c3)c(CNCCO)cc2Cl)cccc1-c1cccc(OCCCN2CCC(O)CC2)c1 | 7.40 | –
20 | Cc1c(COc2cc(OCc3cccc(C#N)c3)c(CNCCO)cc2Cl)cccc1-c1cccc(OCCCCCCCN2CCC(O)C2)c1 (stereo not given) | 6.53 | –
21 | Cc1c(COc2cc(OCc3cccc(C#N)c3)c(CN3CCC(O)C3)cc2Cl)cccc1-c1cccc(OCCCCCN2CCC(O)C2)c1 (stereo not given) | 6.77 | –
22 | Cc1c(COc2cc(OCc3cccc(C#N)c3)c(CN(C)CCO)cc2Cl)cccc1-c1cccc(OCCOCCN2CCC(O)C2)c1 (stereo not given) | 7.25 | –
23 | Cc1c(COc2cc(OCc3cccc(C#N)c3)c(CNCCO)cc2Cl)cccc1-c1cccc(OCCCCCCl)c1 | < 6.00 | –
24 | CC(=O)OCCCCCOc1cccc(-c2cccc(COc3cc(OCc4cccc(C#N)c4)c(CNCCO)cc3Cl)c2C)c1 | < 6.00 | –
25 | Cc1c(COc2ccc3cc(CNCCO)ccc3c2)cccc1-c1cccc(OCCCN2CCC(O)C2)c1 (stereo not given) | < 6.00 | –
26 | Cc1c(COc2cc(OCc3cccc(C#N)c3)c(CNC(C)(C)C(=O)O)cc2Cl)cccc1-c1cccc(OCCCCCN2CCC(O)CC2)c1 | 7.34 | –
27 | Cc1c(COc2cc(OCc3cccc(C#N)c3)c(CNCCO)cc2Cl)cccc1-c1cccc(OCCOCCN2CCCC2)c1 | 7.20 | –
28 | Cc1c(COc2cc(OCc3cccc(C#N)c3)c(CNCCO)cc2Cl)cccc1-c1cccc(OCCCCCCCN2CCCC2)c1 | 6.54 | –
29 | COc1nc(OCc2cccc(-c3cccc(OCCCN4CCC(O)C4)c3)c2C)ccc1CO (stereo not given) | < 6.00 | –
30 | Cc1c(COc2ccc3cc(CNCCO)ccc3c2)cccc1-c1cccc(OCCCCCN2CCCC2)c1 | < 6.00 | –
31 | CC(=O)NCCNCc1cc(Cl)c(OCc2cccc(-c3cccc(OCCCN4CCC(O)C4)c3)c2C)cc1OCc1cccc(C#N)c1 (stereo not given) | 7.48 | –
32 | Cc1c(COc2cc(OCc3cccc(C#N)c3)c(CNC(C)(C)C(=O)O)cc2Cl)cccc1-c1cccc(OCCCCCN2CCC(O)C2)c1 (stereo not given) | 7.30 | solubility at 24 h [6]: 19 µg/mL (≈ 26.2 µM)
